Data on two compounds can be found in ChEMBL document CHEMBL2157997, “β-D-2'-α-F-2'-β-C-Methyl-6-O-substituted 3',5'-cyclic phosphate nucleotide prodrugs as inhibitors of hepatitis C virus replication: a structure-activity relationship study” (Bioorg Med Chem Lett, 2012).

A short description of series [1]: AUC (infinity) in rat at 40 mg/kg, po administered QD measured after 1 day. In kind it is ADME, organism-based. On the set-up: time infinity, dose 40 mg/kg, route oral. The following applies: plasma.
The subject of series [2] is Rattus norvegicus. Kind of series: Prodrug activation in rat liver assessed as total nucleotide level at 40 mg/kg, po administered QD as repeated dose measured at 4 hrs post-dosing on day 8. It is filed as organism-based. More on the design: dose 40 mg/kg, route oral. The following applies: in vivo.
A short description of series [3]: Half life in simulated intestinal fluid. It is filed as physicochemical.
A short description of series [4]: Cmax in rat at 40 mg/kg, po administered QD measured after 7 days. In kind it is ADME, organism-based. More on the design: dose 40 mg/kg, route oral. The following applies: in vivo.
Series [5] has as its system Rattus norvegicus. Kind of series: Prodrug conversion in rat liver assessed as beta-D-2'-deoxy-2'-alpha-fluoro-2'-beta-C-methylguanosine triphosphate level at 40 mg/kg, po administered QD as repeated dose measured at 4 hrs post-dosing on day 8. On the set-up: dose 40 mg/kg, route oral. In kind it is ADME, organism-based. Particulars: in vivo.
Series [6] can be described thus: Half life in human plasma. It is filed as ADME, cell-free.
The nature of series [7]: Cytotoxicity against human HuH7 cells. It is filed as cell-based. Particulars: Huh-7 cells.
Series [8] deals with Rattus norvegicus. Kind of series: Prodrug activation in rat liver assessed as beta-D-2'-deoxy-2'-alpha-fluoro-2'-beta-C-methylguanosine diphosphate level at 40 mg/kg, po administered QD as repeated dose measured at 4 hrs post-dosing on day 8. It is filed as organism-based. More on the design: dose 40 mg/kg, route oral. The following applies: in vivo.
The nature of series [9]: Half life in simulated gastric fluid. In kind it is physicochemical.
Series [10] concerns HepG2. Kind of series: Mitochondrial toxicity against human HepG2 cells assessed as decrease in ribosomal DNA up to 100 uM after 14 days by RT-PCR analysis. The following applies: hepg2, 336 h. In kind it is cell-based.
Series [11] can be described thus: Tmax in rat at 40 mg/kg, po administered QD measured after 7 days. In kind it is ADME, organism-based. On the set-up: dose 40 mg/kg, route oral. The following applies: in vivo.
Series [12] concerns Rattus norvegicus. Kind of series: Prodrug activation in rat liver assessed as beta-D-2'-deoxy-2'-alpha-fluoro-2'-beta-C-methylguanosine monophosphate level at 40 mg/kg, po administered QD as repeated dose measured at 4 hrs post-dosing on day 8. In kind it is organism-based. More on the design: dose 40 mg/kg, route oral. The following applies: in vivo.
Series [13] can be described thus: Cmax in rat at 40 mg/kg, po administered QD measured after 1 day. The following applies: in vivo. More on the design: dose 40 mg/kg, route oral. It is filed as ADME, organism-based.
The test system of series [14] is Hepatitis C virus. Kind of series: Ratio of PSI-352938 EC90 to compound EC90 for Hepatitis C virus genotype 1b infected in clone A cells. It is filed as functional, Hepacivirus hominis.
For series [15], the system named is Huh-7. Nature of the series: Prodrug activation in human HuH7 cells infected with HCV genotype 1b assessed as Tmax of beta-D-2'-deoxy-2'-alpha-fluoro-2'-beta-C-methylguanosine triphosphate level at 100 uM. The following applies: huh-7, 100 µM. It is filed as cell-based.
Series [16] can be described thus: AUC (infinity) in rat at 40 mg/kg, po administered QD measured after 7 days. The following applies: plasma. On the set-up: time infinity, dose 40 mg/kg, route oral. It is filed as ADME, organism-based.
In series [17] the test system is Hepatitis C virus. Nature of the series: Antiviral activity against Hepatitis C virus genotype 1b replicon infected in Lunet cells by luciferase reporter gene assay. It is filed as functional, Hepacivirus hominis.
Series [18] relates to Rattus norvegicus. Kind of series: Tlast in rat at 40 mg/kg, po administered QD measured after 1 day. In kind it is ADME, organism-based. More on the design: dose 40 mg/kg, route oral. The following applies: in vivo, 24 h.
Series [19] is described as follows: Half life in rat plasma. It is filed as ADME, cell-free.
In series [20] the test system is HepG2. Kind of series: Cytotoxicity against human HepG2 cells up to 100 uM after 8 days by MTT assay. It is filed as cell-based. The following applies: hepg2, 192 h.
Series [21] in a line: Half life in human liver S9 fraction. It is filed as ADME, subcellular.
Series [22] can be described thus: Half life in rat at 40 mg/kg, po administered QD measured after 7 days. It is filed as ADME, organism-based. More on the design: dose 40 mg/kg, route oral. Particulars: in vivo.
Series [23] has as its system HepG2. Kind of series: Mitochondrial toxicity against human HepG2 cells assessed as decrease in mitochondrial COX2 DNA up to 100 uM after 14 days by RT-PCR analysis. In kind it is cell-based. The following applies: hepg2, 336 h.
Series [24] concerns CCRF-CEM. Nature of the series: Mitochondrial toxicity against human CEM cells assessed as decrease in mitochondrial COX2 DNA up to 100 uM after 14 days by RT-PCR analysis. In kind it is cell-based. The following applies: 336 h.
A short description of series [25]: AUClast in rat at 40 mg/kg, po administered QD measured after 7 days. In kind it is ADME, organism-based. Particulars: plasma. On the set-up: dose 40 mg/kg, route oral.
Series [26] relates to Rattus norvegicus. Kind of series: Prodrug activation in rat liver assessed as free nucleoside level at 40 mg/kg, po administered QD as repeated dose measured at 4 hrs post-dosing on day 8. It is filed as organism-based. More on the design: dose 40 mg/kg, route oral. The following applies: in vivo.
The test system of series [27] is CCRF-CEM. Kind of series: Cytotoxicity against human CEM cells up to 100 uM after 8 days by MTT assay. It is filed as cell-based. The following applies: 192 h.
For series [28], the system named is Huh-7. Nature of the series: Cytotoxicity against human HuH7 cells up to 100 uM after 8 days by MTT assay. It is filed as cell-based. The following applies: huh-7, 192 h.
Series [29] relates to CCRF-CEM. Nature of the series: Mitochondrial toxicity against human CEM cells assessed as decrease in ribosomal DNA up to 100 uM after 14 days by RT-PCR analysis. It is filed as cell-based. The following applies: 336 h.
The test system of series [30] is Hepatitis C virus. Kind of series: Antiviral activity against Hepatitis C virus genotype 1b replicon infected in clone A cells assessed as inhibition of viral replication by RT-PCR analysis. It is filed as functional, Hepacivirus hominis.
Series [31] concerns Hepatitis C virus. Kind of series: Antiviral activity against Hepatitis C virus expressing NS5B S282T mutant by cell-based replicon assay. In kind it is functional, Hepacivirus hominis.
The nature of series [32]: Tmax in rat at 40 mg/kg, po administered QD measured after 1 day. More on the design: dose 40 mg/kg, route oral. The following applies: in vivo. In kind it is ADME, organism-based.
A further series relates to Hepatocyte. Kind of series: Prodrug activation in human primary hepatocytes assessed as assessed as Tmax of beta-D-2'-deoxy-2'-alpha-fluoro-2'-beta-C-methylguanosine triphosphate level at 100 uM. It is filed as cell-based, Liver.
Another series deals with BXPC-3. Kind of series: Cytotoxicity against human BxPC3 cells up to 100 uM after 8 days by MTT assay. In kind it is cell-based. The following applies: bxpc-3, 192 h.
Series [33] can be described thus: Half life in rat at 40 mg/kg, po administered QD measured after 1 day. It is filed as ADME, organism-based. On the set-up: dose 40 mg/kg, route oral. The following applies: in vivo.
Series [34] can be described thus: AUClast in rat at 40 mg/kg, po administered QD measured after 1 day. It is filed as ADME, organism-based. More on the design: dose 40 mg/kg, route oral. Particulars: plasma.
Series [35] deals with Rattus norvegicus. Kind of series: Tlast in rat at 40 mg/kg, po administered QD measured after 7 days. It is filed as ADME, organism-based. More on the design: dose 40 mg/kg, route oral. Particulars: in vivo, 168 h.
In series [36] the test system is Hepatitis C virus. Kind of series: Antiviral activity against Hepatitis C virus infected in po dosed human assessed as log reduction in viral load. In kind it is functional, Hepacivirus hominis.

`COc1nc(N)nc2c1ncn2[C@@H]1O[C@@H]2COP(=O)(OC3CCCC3)O[C@H]2[C@@]1(C)F` (stereo partly drawn): the AUC(0-inf) in series [1] was 690 ng·h/mL; in series [16], 510 ng·h/mL. For the same compound, the Drug metabolism with Rattus norvegicus [2] is recorded as 61.37 nmol/g; in the series on Rattus norvegicus [5] it was 3.78 nmol/g; with Rattus norvegicus [8], 31 nmol/g; in the series on Rattus norvegicus [12], 26.6 nmol/g; with Rattus norvegicus [26] it was 21.28 nmol/g. For the same compound, the half-life in series [3] is 14 h; in series [6] it was greater than 24 h; in [9], 9.2 h; in series [19] it was 22 h; in series [21], 20 h; in series [22] it was 0.93 h. Besides, the half-life in [33] is 1.8 h. The Cmax in series [4] worked out at 120 ng/mL; in [13], 160 ng/mL. The CC90 in [7] is greater than 100 µM. For the same compound, the Activity result in the series on HepG2 [10], in the series on HepG2 [20], in the series with HepG2 [23], with CCRF-CEM [24], with CCRF-CEM [27] and in the series with Huh-7 [28] was “Non-toxic” each time. The Activity result with CCRF-CEM [29] and in the series with BXPC-3 was “Non-toxic” in each case. Besides, the Tmax was determined as 1.67 h in series [11], 72 h with Huh-7 [15], 1.67 h in [32] and 8 h in the series with Hepatocyte. For the same compound, the Ratio entry with Hepatitis C virus [14] is given as “>=10”. The EC90 in the series with Hepatitis C virus [17] was 0.037 µM; in the series with Hepatitis C virus [30], 0.102 µM; in the series on Hepatitis C virus [31] it was 0.027 µM. Further, the Tlast in the series on Rattus norvegicus [18] and in the series with Rattus norvegicus [35] was 7.33 h throughout. This compound also came in with an AUC(0-t) at 168 h in series [25] of 510 ng·h/mL. In addition, the exposure AUC(0-t) at 24 h in series [34] turned out to be 660 ng·h/mL.

With `CCOc1nc(N)nc2c1ncn2[C@@H]1O[C@@H]2COP(=O)(OC(C)C)O[C@H]2[C@@]1(C)F` (stereo partly drawn) [PSI-352938], the half-life was greater than 20 h in [3]; greater than 24 h in series [6]; greater than 20 h in series [9]; greater than 24 h in [19]; greater than 24 h in series [21]. In series [7], the CC90 was greater than 100 µM. The Tmax with Huh-7 [15] is 96 h; in the series with Hepatocyte, 24 h. The EC90 with Hepatitis C virus [17] was 0.74 µM; with Hepatitis C virus [30], 1.37 µM. In the series on Hepatitis C virus [36], the Activity was greater than 5 log10IU/ml.
